{"source": "patent US20250228824A1", "about": "“COMPOSITIONS AND METHODS FOR INHIBITION OF ITO AS TREATMENT FOR THE J WAVE SYNDROMES AND HYPOTHERMIA” (Lankenau Institute for Medical Research, priority 2021, published 2025)", "key": {"[1]": {"tested_on": "canine right ventricular epicardial myocytes", "assay": "Action potential recording (current clamp) in canine RV epicardial myocytes", "assay_type": "cell-based", "settings": "10 μM", "method": "(§1) Single myocytes were isolated from coronary-perfused canine right or left ventricular wedge preparations via enzymatic dissociation. Briefly, the wedge preparations were coronary perfused with nominally Ca^+2-free Tyrode's solution for a period of 15 min. They were then subjected to enzymatic digestion in nominally Ca^2+-free solution supplemented with 0.6 mg/ml collagenase (type II; Worthington) and 0.075 mg/ml protease (type XIV; Sigma) for 25-35 min. The wedge preparation was then perfused for 15 min with a taurine buffer solution containing (in mM): 108 NaCl, 10 HEPES, 11 D-glucose, 4 KCl, 1.2 MgSO4, 1.2 NaH2PO4, 50 taurine and 0.025 CaCl2. pH was adjusted to 7.4 using NaOH. After perfusion, thin slices of tissue were cut from the epicardial surface to obtain single epicardial cells as previously described.^6\nIto and APs were measured in isolated RV or LV myocytes. APs were measured in the current-clamp mode in the whole-cell configuration. APs were initiated using intracellular current injection and recorded continuously by means of Clampex software (Axon Instruments/Molecular Devices) at a sampling frequency of […]. Ito was measured using the Axopatch 200B-2 amplifier in V-Clamp mode."}, "CaV1.2 (ICa)": {"tested_on": "CaV1.2 (ICa)", "assay": "Whole-cell patch clamp of ICa in canine ventricular myocytes", "assay_type": "cell-based", "settings": "10 μM; at 0 mV; control −5.13+0.77; shift not statistically significant", "method": "as §1\nICa was measured in canine ventricular myocytes at 37° C. ICa was elicited by application of 300 ms steps from −50 to +40 mV. Extended protocols were avoided to prevent current rundown. Internal solution contained (in mM): 120 CsCl, 1 MgCl2, 10 EGTA, 5 Mg-ATP, 10 HEPES, 5 CaCl2. pH was adjusted to 7.2 with CsOH. External solution contained (in mM): 140 NaCl, 10 HEPES, 10 D-glucose, 4 KCl, 1 MgCl2, 2 CaCl2, 2 4-AP and 0.1 BaCl2."}}, "data": [{"smiles": "Cc1nc(-n2cccc2)sc1C(=O)N=c1[nH]c2ccccc2[nH]1", "note": "[AR-787, N-(1H-benzimidazol-2-yl)-4-methyl-2-pyrrol-1-yl-thiazole-5-carboxamide]", "values": [{"measurement": "Action potential duration (APD)", "setting": "[1]", "value": "tendency to abbreviate but this effect was not statistically significant"}, {"measurement": "effect on AP notch", "setting": "[1]; 0.5 Hz", "value": "significantly suppressed the AP notch"}, {"measurement": "ICa peak density", "setting": "CaV1.2 (ICa)", "value": "−6.95+1.88 pA/pF"}]}]}
